Assay results as given in patent US20110143948A1, “MOLECULAR SIGNATURES AND BIOMARKERS ASSOCIATED WITH MELANOMA AND METHODS OF USE THEREOF” (priority 2008, published 2011).

Test system: ncRNAs (SEQ ID NO 28-89)
Test: ncRNA arrays of melanocytes, keratinocytes, normal skin, melanoma cell lines and patient samples
Parameters: species or system human
Settings: for ncRNA array expression, patient 2: melanoma patient 2 sample compared to normal skin; for ncRNA array expression, patient 3: melanoma patient 3 sample compared to normal skin; for ncRNA array expression, patient 4: melanoma patient 4 sample compared to normal skin; for ncRNA array expression, patient 5: melanoma patient 5 sample compared to normal skin; for ncRNA array expression, patient 6: melanoma patient 6 sample compared to normal skin; for ncRNA array expression, patient 7: melanoma patient 7 sample compared to normal skin; for ncRNA array expression, patient 8: melanoma patient 8 sample compared to normal skin; for ncRNA array expression, patient 9: melanoma patient 9 sample compared to normal skin; for ncRNA array expression, patient 10: melanoma patient 10 sample compared to normal skin; for ncRNA array expression, patient 19: melanoma patient 19 sample compared to normal skin; for ncRNA array expression, patient 20: melanoma patient 20 sample compared to normal skin; for ncRNA array expression, patient 21: melanoma patient 21 sample compared to normal skin; for ncRNA array expression, patient 22: melanoma patient 22 sample compared to normal skin; for ncRNA array expression, patient 23: melanoma patient 23 sample compared to normal skin; for ncRNA array expression, patient 24: melanoma patient 24 sample compared to normal skin; for ncRNA array expression, patient 25: melanoma patient 25 sample compared to normal skin; for ncRNA array expression, patient 26: melanoma patient 26 sample compared to normal skin; for ncRNA array expression, patient 27: melanoma patient 27 sample compared to normal skin; for ncRNA array expression, patient 28: melanoma patient 28 sample compared to normal skin; for ncRNA array expression, patient 29: melanoma patient 29 sample compared to normal skin; for ncRNA array expression, patient 30: melanoma patient 30 sample compared to normal skin
Outline: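 Differential ncRNA expression was defined against melanocytes or normal skin after subtracting keratinocyte-specific signals, with confirmation by qRT-PCR and Northern blot. Samples were melanoma cell lines, patient tumours, melanocytes, keratinocytes and normal skin, hybridised to a >10,000-probe (>200 nt) ncRNA array that also carries RefSeq mRNA probes.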

| Substance | ncRNA array expression, patient 2 | ncRNA array expression, patient 3 | ncRNA array expression, patient 4 | ncRNA array expression, patient 5 | ncRNA array expression, patient 6 | ncRNA array expression, patient 7 | ncRNA array expression, patient 8 | ncRNA array expression, patient 9 | ncRNA array expression, patient 10 | ncRNA array expression, patient 19 | ncRNA array expression, patient 20 | ncRNA array expression, patient 21 | ncRNA array expression, patient 22 | ncRNA array expression, patient 23 | ncRNA array expression, patient 24 | ncRNA array expression, patient 25 | ncRNA array expression, patient 26 | ncRNA array expression, patient 27 | ncRNA array expression, patient 28 | ncRNA array expression, patient 29 | other results |
| --- | --- | --- | --- | --- | --- | --- | --- | --- | --- | --- | --- | --- | --- | --- | --- | --- | --- | --- | --- | --- | --- |
| SEQ ID NO 69 (AGAGTTCGCACTGGGAAGAGTTAAAAAATAAACATTTACAAGGACGAGGAAAGCGGCCCC; listed as DNA, chemistry not given here; listed as Homo sapiens) | −1.697 | −1.8068 | −1.369 | −1.797 | −0.5526 | −1.8141 | −1.777 | −1.618 | −1.696 | −0.9749 | −1.422 | −1.5966 | −0.8782 | −0.2153 | −1.796 | −1.178 | −1.015 | −0.7594 | −1.693 | −1.645 | ncRNA array expression, patient 30: 0.8457 |
| SEQ ID NO 70 (AGTTATAGAGGAGGCTCAGGAGGATCTGGGGAAACGGGACCAGAGGGTAAGATGGGTTAT; listed as DNA, chemistry not given here; listed as Homo sapiens) | −1.553 | −1.673 | −1.217 | −1.521 | −1.483 | −1.751 | −2.182 | −1.366 | −0.6931 | −1.792 | −1.615 | −1.1 | −1.351 | −0.7876 | −1.593 | −1.473 | −1.495 | −1.848 | −1.549 | −1.625 | ncRNA array expression, patient 30: −0.6666 |
| SEQ ID NO 71 (AAAATTCCAAGAGGGCCTTTTCGAATAGACGCATGAACGGTGTTTGTGTCTGGATCGTCC; listed as DNA, chemistry not given here; listed as Homo sapiens) | 0.7413 | 0.6126 | 1.336 | 2.628 | 1.002 | 1.936 | 0.7221 | 0.1592 | 1.787 | 3.439 | 1.577 | 1.245 | 1.105 | 0.258 | 2.527 | 2.034 | 1.058 | 1.849 | 0.926 | 2.387 | ncRNA array expression, patient 30: −2.464 |
| SEQ ID NO 72 (AATTACATATATTTAGCAGGATTTTTATTTGCCGTGATATATAGGATAATTTAGTCTTTG; listed as DNA, chemistry not given here; listed as Homo sapiens) | 2.217 | 2.382 | 2.566 | 1.096 | 2.336 | 2.665 | 3.323 | −0.6629 | 2.245 | 0.2985 | 1.011 | 0.6264 | 0.5499 | 0.09129 | 2.832 | 3.664 | 3.29 | 2.308 | 1.044 | 2.583 | ncRNA array expression, patient 30: −1.3285 |
| SEQ ID NO 73 (AAAGTTTCCCCATAATGCTCTTGCAAGTGAATATGAGCTGTGGTTTTTGCAGTGGAGTTA; listed as DNA, chemistry not given here; listed as Homo sapiens) | −0.1172 | 1.314 | 2.477 | −0.06181 | 1.506 | −0.179 | 1.518 | 1.007 | 1.767 | 3.505 | 0.6301 | 2.332 | 0.9622 | 0.07892 | 0.3377 | 1.57 | 1.308 | 0.1447 | 2.166 | 0.9153 | ncRNA array expression, patient 30: −0.2612 |
| SEQ ID NO 74 (TATATTACAGGAGTTGTCTATACGATTATAGTACCTGATTCTTTGGACATATCATTGAAC; listed as DNA, chemistry not given here; listed as Homo sapiens) | 2.155 | 1.879 | 2.326 | 0.3239 | 0.8281 | 2.016 | 1.309 | 0.6157 | 2.172 | −0.2091 | 0.8773 | 1.569 | 0.2398 | 1.776 | 0.8669 | 2.599 | 2.626 | 0.4062 | 2.421 | 1.974 | ncRNA array expression, patient 30: −1.075 |
| SEQ ID NO 75 (CAAGTGGGAAGAAAAAGAGCCCTACGTGGTGACATTCTGGAAGGATATCATGGATGATTG; listed as DNA, chemistry not given here; listed as Homo sapiens) | 0.5875 | 0.2177 | 1.062 | 1.072 | 1.853 | 2.114 | 2.605 | 1.117 | 0.6968 | 1.219 | 2.945 | 1.592 | 1.681 | 1.545 | 2.209 | −0.3024 | 0.226 | 3.291 | 1.546 | 2.221 | ncRNA array expression, patient 30: −1.4645 |
| SEQ ID NO 76 (TGTTTCTAATGCATACTGTGAAAGGAAAAAAAATCACAGTTATCCACCTTCTCAGGGCCT; listed as DNA, chemistry not given here; listed as Homo sapiens) | −1.682 | −1.051 | −1.297 | −1.036 | 0.3953 | −1.741 | −1.681 | −1.284 | −0.6169 | −0.775 | −1.184 | −1.216 | −0.05441 | 0.7328 | −1.262 | −1.549 | −1.597 | −1.555 | −1.598 | −1.765 | ncRNA array expression, patient 30: 0.4068 |
